# Positions of bridges follow the written chain, without caps; N, C: chain ends. Non-standard residues stand in square brackets, D forms with d. Residues, ends and D or L forms follow the SMILES beside them. 1Nal = N[C@@H](Cc1cccc2ccccc12)C(=O)O
# Biological target: T1, hVEGF-A (Homo sapiens, UniProt P15692)
# T1 sequence (P15692 207-395): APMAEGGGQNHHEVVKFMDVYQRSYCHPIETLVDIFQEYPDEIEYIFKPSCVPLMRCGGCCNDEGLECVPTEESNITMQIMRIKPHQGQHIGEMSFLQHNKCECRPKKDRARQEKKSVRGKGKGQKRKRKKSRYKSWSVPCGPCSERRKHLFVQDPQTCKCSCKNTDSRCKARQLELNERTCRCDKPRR
# Experiment: KDR-CHO VEGF assay to determine cellular IC50 (VEGF mediated Tyr phosphorylation of KDR)
# Format: cell-based
# Experimental: KDR-CHO cells (CHO cells stably transfected with gD tagged-KDR) were grown in cell growth medium (DMEM/Ham's F-12, 10% diafiltered FBS (GIBCO catalog no. 26400), 25 mM HEPES, 2 mM L-GLUTAMAX™). For VEGF stimulation assay, 5×10^4 cells/well were plated in 100 μl of cell plating medium (DMEM/Ham's F-12, 0.2% BSA, 0.25% diafiltered FBS, 25 mM HEPES, 2 mM L-GLUTAMAX™) in 96-well tissue culture plate and incubated at 37° C. overnight. The medium was replaced with 100 I1 of serum-free cell stimulation medium (DMEM/Ham's F-12, 0.5% BSA, 25 mM HEPES) and cells were incubated at 37° C. for 2 hr. One hour before stimulation, the medium was replaced with 50 I1 of serum-free cell stimulation medium. Concurrently, VEGF (50 ng/ml for hVEGF, 100 ng/ml for mVEGF and rVEGF) was pre-incubated with titrated amount of CKP or anti-VEGF in 50 μl of serum-free cell stimulation medium at 37° C. for 1 hour and added to the cells. The cells were stimulated for 15 min at 37 C and the medium is removed. The cells were lysed with 130 I1 of ice-cold cell lysis buffer (150 mM NaCl, 50 mM HEPES, 0.5% Triton-X 100, HALT protease and phosphatase inhibitor cocktail (ThermoFisher Scientific, Inc. catalog no. 78444), 5 mM EDTA). VEGF mediated Tyr phosphorylation of KDR was determined by ELISA-based assay. Briefly, MAXISORP™ 96 well plates (ThermoFisher Scientific, Inc. catalog no. 439454) were coated with 100 I1 of anti-gD antibody diluted in PBS (1 μg/ml) at 4° C. overnight and washed three times with washing buffer (PBS, 0.05% TWEEN®20, pH 7.4). The plates were blocked with 300 I1 of blocking buffer (PBS, 0.5% BSA) at room temperature for 1 hour followed by washing three times with washing buffer. The above KDR-CHO cell lysate (100 μl) was added to each well and incubated at room temperature for 2 hours. The plates were washed four times with washing buffer followed by incubation with 100 I1 of 0.5 μg/ml biotin-conjugated anti-phosphotyrosine (clone 4G10, Millipore catalog no. 16-103) in blocking buffer at room temperature for 2 hours. After washing four times, the plates were incubated with 100 I1 of HRP-conjugated streptavidin in blocking buffer at room temperature for 30 min. After washing four times, the plates were developed with 100 I1 of TMB substrate (BD Biosciences) at room temperature for 20-30 min and stopped by addition of 50 μl of H2SO4 solution. The optical density of each well was determined using a microplate reader set to 450 nm.
SMILES,"FOLD IMPROVEMENT RELATIVE TO VARIANT 9.54.90 (Table 36, from cellular IC50)","FOLD IMPROVEMENT RELATIVE TO VARIANT 9.54.90 (Table 38, from cellular IC50)"
"CC[C@H](C)[C@H](NC(=O)[C@@H]1CSSC[C@H](NC(=O)CN)C(=O)N[C@@H](CC(N)=O)C(=O)N[C@@H]([C@@H](C)CC)C(=O)N[C@@H](CCSC)C(=O)N[C@@H](CC(C)C)C(=O)N2CCC[C@H]2C(=O)N[C@@H](Cc2ccccc2)C(=O)N[C@@H](Cc2c[nH]c3ccccc23)C(=O)NCC(=O)N[C@H]2CSSC[C@H](NC(=O)[C@H](CCC(=O)O)NC(=O)[C@H](Cc3ccccc3)NC(=O)[C@H](CC(=O)O)NC(=O)[C@H](CCCNC(=N)N)NC(=O)CNC2=O)C(=O)N[C@@H](Cc2ccccc2)C(=O)N[C@@H](Cc2ccc(O)cc2)C(=O)N[C@@H](CCC(=O)O)C(=O)N1)C(=O)N[C@H]1CSSC[C@@H](C(=O)NCC(=O)O)NC(=O)[C@H](CO)NC(=O)[C@H](CCC(N)=O)NC(=O)[C@H](Cc2ccc(O)cc2)NC(=O)[C@H](Cc2ccc(O)cc2)NC(=O)[C@H](CCC(N)=O)NC1=O [9.54.90.62] (H-GCNIMLPFWGCGRDFECFYECICQYYQSCG-OH; disulfide 2-21, 11-17, 23-29; N-terminus and C-terminus assumed)",1.47,1.47
"CC[C@H](C)[C@@H]1NC(=O)[C@H](CC(N)=O)NC(=O)[C@@H](NC(=O)CN)CSSC[C@@H](C(=O)N[C@H](C(=O)N[C@H]2CSSC[C@@H](C(=O)NCC(=O)O)NC(=O)[C@H](CO)NC(=O)[C@H](CCC(N)=O)NC(=O)[C@H](Cc3ccc(O)cc3)NC(=O)[C@H](Cc3ccc(O)cc3)NC(=O)[C@H](CCC(N)=O)NC2=O)C(C)C)NC(=O)CNC(=O)[C@H](C)NC(=O)[C@H](CC(C)C)NC(=O)[C@@H]2CSSC[C@H](NC(=O)CNC(=O)[C@H](Cc3cccc4ccccc34)NC(=O)[C@H](Cc3ccccc3)NC(=O)[C@@H]3CCCN3C(=O)[C@H](CC(C)C)NC(=O)[C@H](CCSC)NC1=O)C(=O)NCC(=O)N[C@@H](CCCNC(=N)N)C(=O)N[C@@H](CC(=O)O)C(=O)N[C@@H](Cc1ccccc1)C(=O)N[C@@H](CCC(=O)O)C(=O)N2 [9.54.90.Naph1] (H-GCNIMLPF[1Nal]GCGRDFECLAGCVCQYYQSCG-OH; disulfide 2-21, 11-17, 23-29; N-terminus and C-terminus assumed)",,0.24
"CC[C@H](C)[C@@H]1NC(=O)[C@H](CC(N)=O)NC(=O)[C@@H](NC(=O)CN)CSSC[C@@H](C(=O)N[C@H](C(=O)N[C@H]2CSSC[C@@H](C(=O)NCC(=O)O)NC(=O)[C@H](CO)NC(=O)[C@H](CCC(N)=O)NC(=O)[C@H](Cc3ccc(O)cc3)NC(=O)[C@H](Cc3ccc(O)cc3)NC(=O)[C@H](CCC(N)=O)NC2=O)C(C)C)NC(=O)CNC(=O)[C@H](C)NC(=O)[C@H](CC(C)C)NC(=O)[C@@H]2CSSC[C@H](NC(=O)CNC(=O)[C@H](Cc3c[nH]c4ccccc34)NC(=O)[C@H](Cc3ccc(O)cc3)NC(=O)[C@@H]3CCCN3C(=O)[C@H](CC(C)C)NC(=O)[C@H](CCSC)NC1=O)C(=O)NCC(=O)N[C@@H](CCCNC(=N)N)C(=O)N[C@@H](CC(=O)O)C(=O)N[C@@H](Cc1ccccc1)C(=O)N[C@@H](CCC(=O)O)C(=O)N2 [9.54.90.F8Y] (H-GCNIMLPYWGCGRDFECLAGCVCQYYQSCG-OH; disulfide 2-21, 11-17, 23-29; N-terminus and C-terminus assumed)",,0.85
"CC[C@H](C)[C@H](NC(=O)[C@@H]1CSSC[C@H](NC(=O)CN)C(=O)N[C@@H](CC(N)=O)C(=O)N[C@@H]([C@@H](C)CC)C(=O)N[C@@H](CCSC)C(=O)N[C@@H](CC(C)C)C(=O)N2CCC[C@H]2C(=O)N[C@@H](Cc2ccccc2)C(=O)N[C@@H](Cc2c[nH]c3ccccc23)C(=O)NCC(=O)N[C@H]2CSSC[C@H](NC(=O)[C@H](CCC(=O)O)NC(=O)[C@H](Cc3ccccc3)NC(=O)[C@H](CC(=O)O)NC(=O)[C@H](CCCNC(=N)N)NC(=O)CNC2=O)C(=O)N[C@@H](CCSC)C(=O)N[C@@H](CO)C(=O)N[C@@H](CC(=O)O)C(=O)N1)C(=O)N[C@H]1CSSC[C@@H](C(=O)NCC(=O)O)NC(=O)[C@H](CO)NC(=O)[C@H](CCC(N)=O)NC(=O)[C@H](Cc2ccc(O)cc2)NC(=O)[C@H](Cc2ccc(O)cc2)NC(=O)[C@H](CCC(N)=O)NC1=O [9.54.90.12] (H-GCNIMLPFWGCGRDFECMSDCICQYYQSCG-OH; disulfide 2-21, 11-17, 23-29; N-terminus and C-terminus assumed)",1.125,
CCCC[C@@H]1NC(=O)[C@H]([C@@H](C)CC)NC(=O)[C@H](CC(N)=O)NC(=O)[C@@H](NC(=O)CN)CSSC[C@@H](C(=O)N[C@H](C(=O)N[C@H]2CSSC[C@@H](C(=O)NCC(=O)O)NC(=O)[C@H](CO)NC(=O)[C@H](CCC(N)=O)NC(=O)[C@H](Cc3ccc(O)cc3)NC(=O)[C@H](Cc3ccc(O)cc3)NC(=O)[C@H](CCC(N)=O)NC2=O)C(C)C)NC(=O)CNC(=O)[C@H](C)NC(=O)[C@H](CC(C)C)NC(=O)[C@@H]2CSSC[C@H](NC(=O)CNC(=O)[C@H](Cc3c[nH]c4ccccc34)NC(=O)[C@H](Cc3ccccc3)NC(=O)[C@@H]3CCCN3C(=O)[C@H](CC(C)C)NC1=O)C(=O)NCC(=O)N[C@@H](CCCNC(=N)N)C(=O)N[C@@H](CC(=O)O)C(=O)N[C@@H](Cc1ccccc1)C(=O)N[C@@H](CCC(=O)O)C(=O)N2 [9.54.90.M5.Nle],,0.69
"CC[C@H](C)[C@H](NC(=O)[C@@H]1CSSC[C@H](NC(=O)CN)C(=O)N[C@@H](CC(N)=O)C(=O)N[C@@H]([C@@H](C)CC)C(=O)N[C@@H](CCSC)C(=O)N[C@@H](CC(C)C)C(=O)N2CCC[C@H]2C(=O)N[C@@H](Cc2ccc(O)cc2)C(=O)N[C@@H](Cc2c[nH]c3ccccc23)C(=O)NCC(=O)N[C@H]2CSSC[C@H](NC(=O)[C@H](CCC(=O)O)NC(=O)[C@H](Cc3ccccc3)NC(=O)[C@H](CC(=O)O)NC(=O)[C@H](CCCNC(=N)N)NC(=O)CNC2=O)C(=O)N[C@@H](CCSC)C(=O)N[C@@H](CC(N)=O)C(=O)N[C@@H](CCC(N)=O)C(=O)N1)C(=O)N[C@H]1CSSC[C@@H](C(=O)NCC(=O)O)NC(=O)[C@H](CO)NC(=O)[C@H](CCC(N)=O)NC(=O)[C@H](Cc2ccc(O)cc2)NC(=O)[C@H](Cc2ccc(O)cc2)NC(=O)[C@H](CCC(N)=O)NC1=O [9.54.90.13.F8Y] (H-GCNIMLPYWGCGRDFECMNQCICQYYQSCG-OH; disulfide 2-21, 11-17, 23-29; N-terminus and C-terminus assumed)",,0.67
"CC[C@H](C)[C@H](NC(=O)[C@@H]1CSSC[C@H](NC(=O)CN)C(=O)N[C@@H](CC(N)=O)C(=O)N[C@@H]([C@@H](C)CC)C(=O)N[C@@H](CCSC)C(=O)N[C@@H](CC(C)C)C(=O)N2CCC[C@H]2C(=O)N[C@@H](Cc2ccc(O)cc2)C(=O)N[C@@H](Cc2c[nH]c3ccccc23)C(=O)NCC(=O)N[C@H]2CSSC[C@H](NC(=O)[C@H](CCC(=O)O)NC(=O)[C@H](Cc3ccccc3)NC(=O)[C@H](CC(=O)O)NC(=O)[C@H](CCCNC(=N)N)NC(=O)CNC2=O)C(=O)N[C@@H](Cc2ccccc2)C(=O)N[C@@H](Cc2ccc(O)cc2)C(=O)N[C@@H](CCC(=O)O)C(=O)N1)C(=O)N[C@H]1CSSC[C@@H](C(=O)NCC(=O)O)NC(=O)[C@H](CO)NC(=O)[C@H](CCC(N)=O)NC(=O)[C@H](Cc2ccc(O)cc2)NC(=O)[C@H](Cc2ccc(O)cc2)NC(=O)[C@H](CCC(N)=O)NC1=O [9.54.90.62.F8Y] (H-GCNIMLPYWGCGRDFECFYECICQYYQSCG-OH; disulfide 2-21, 11-17, 23-29; N-terminus and C-terminus assumed)",,1.18

# From patent US11155586B2, “Cystine knot scaffold platform” (Genentech, Inc., priority 2015, dated 2021)
